Data as given in patent publication US20240158448A1, “MULTIVALENT NANO-'SELF' PEPTIDES AND USES THEREOF” (THE TRUSTEES OF THE UNIVERSITY OF PENNSYLVANIA, priority 2021, published 2024).

Experiments:
[1] = tested on: mouse J774A.1 macrophages; assay: In vitro phagocytosis assay: opsonized human RBCs engulfed by mouse J774A.1 macrophages; format: cell-based; conditions: saturating / 50 μM peptide
Method: In vitro phagocytosis assay. […] For CD47 blocked RBCs, 5 μg/mL of mouse anti-human CD47 (B6H12; BD Biosciences) were added. Thereafter, RBCs were washed with PBS three times and stained with PKH26 dye (1:800 dilution in PBS; Sigma) for 1 hour at RT with shaking in the dark. RBCs were washed and resuspended in PBS. J774A.1 macrophages were plated for 24 hours in RPMI. For SIRPα blocked J774A.1 macrophages, the same peptide blocking procedure as described elsewhere herein was used with the addition of a positive control using 5 μg/mL rat anti-mouse SIRPα ([…]; BD Biosciences). […] CO2 and 95% humidity. Macrophages were then washed with RPMI three times. Adherent and uninternalized RBCs were lysed with water for 30 seconds followed by immediate replacement with RPMI media. In order to distinguish remaining adherent RBCs from internalized RBCs, opsonized RBCs were stained with AlexaFluor 647 donkey anti-rabbit (binds to rabbit polyclonal opsonin on RBC; Invitrogen) IgG (1:1000) while unopsonized, CD47 blocked RBCs were stained with AlexaFluor 647 donkey anti-mouse (binds to mouse monoclonal anti-CD47 on RBCs; Invitrogen) IgG (1:1000) for 30 minutes. After washing, macrophages were fixed with 4% formaldehyde for 15 minutes at RT, washed with PBS, stained with 1 μg/mL Hoechst 33342, and then washed with PBS again. Fluorescence imaging was performed as described elsewhere herein and quantification was done using ImageJ. At least 200 cells were analyzed and experiments were repeated at least three times.

[2] = target: T1, soluble human SIRPα (Homo sapiens, UniProt P78324); assay: Binding of biotinylated peptides on streptavidin beads to soluble SIRPα
T1 construct: Soluble human SIRPα fused with glutathione s-transferase (SIRPα-GST); GST (glutathione S-transferase); made in house
T1 sequence (P78324 31-373 limits assumed): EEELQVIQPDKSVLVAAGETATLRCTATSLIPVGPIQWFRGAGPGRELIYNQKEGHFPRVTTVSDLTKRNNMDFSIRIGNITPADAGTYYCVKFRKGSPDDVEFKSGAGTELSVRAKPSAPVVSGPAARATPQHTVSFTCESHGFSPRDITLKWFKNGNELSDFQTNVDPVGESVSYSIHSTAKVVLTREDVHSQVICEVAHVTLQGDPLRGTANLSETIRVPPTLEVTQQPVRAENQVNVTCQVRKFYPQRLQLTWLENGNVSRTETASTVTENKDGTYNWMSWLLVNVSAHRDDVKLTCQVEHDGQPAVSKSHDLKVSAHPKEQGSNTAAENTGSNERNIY
Description: SIRPα Expression and Purification. Soluble human SIRPα fused with glutathione s-transferase (SIRPα-GST) was expressed and purified as previously published (Tsai, et al., 2008, J. Cell Biol. 180:989-1003).
Peptide biotinylation: NHS-biotin (Thermo Fischer) was mixed with nS-wt and nS-V, respectively, following the manufacturer's protocol. The biotinylated peptides were dialyzed against PBS.
Streptavidin-beads binding: Streptavidin-coated polystyrene beads of 2.1 μm radius (Spherotech) were washed and blocked 3x in PBS plus 0.4% BSA. nS-wt-biotin or nS-V-biotin were incubated with the beads for 1 hour at room temperature with shaking. Beads were washed with PBS, then incubated with recombinant SIRPα for 1 hour in ice. Streptavidin beads were labeled with rabbit anti-streptavidin-FITC (Invitrogen) and SIRPα was stained with mouse anti-SIRPα-allophycocyanin (anti-SIRPα-APC; Invitrogen).

[3] = tested on: A549 (SIRPα positive) cells; assay: Confocal live staining with FAM-labeled peptides, A549 cells; format: binding, human; conditions: 100 uM and 1 μM FAM-labeled peptide
Method: SIRPα staining and confocal imaging. THP-1 monocytes were PMA-differentiated in RPMI 1640 for 24 hours. J774A.1, A549, and COS-1 cells were plated for 24 hours in media, respectively. Cells were washed with respective media prior to addition of fluorescent peptides. The peptides were left to incubate for 1 hour at 37 ° C., 5% CO2 and 95% humidity. For fixed cell staining, cells were incubated with 4% formaldehyde (Pierce) for 15 minutes prior to the addition of fluorescent peptides whereas for live cell staining, fixation was done after incubation with the FAM-labeled peptides. Nuclei were stained with 1 μg/mL Hoechst 33342 (Invitrogen). Cells were the washed PBS three times before analysis. Fluorescence imaging of fixed cells was performed using an Olympus IX71 with a digital EMCCD camera (Cascade 512B) and a 40×/0.6 NA objective. […] Quantification was done with ImageJ (NIH).
In order to visualize the uneven binding of the peptides to the surface of the macrophages, a live staining experiment of THP-1, J774A.1, and A549 cells, which all express SIRPα at different levels, was performed with FAM-labeled nS-wt and nS-X and analyzed by confocal microscopy (FIG. 11). […] Fluorescence of nS-X was consistently lower on THP-1 and J774A.1 macrophages relative to nS-wt. […]

VTELTREG [nS-wt, 8-amino acid wild type nano-Self peptide from the CD47 loop, C-terminal amide]
effect on phagocytosis of opsonized RBCs (words) [1]: matches anti-CD47 blockade effects
SIRPα binding to peptide-coated beads [2]: fluorescence is only observed in the presence of biotinylated peptide
binding to A549 cells [3]: binding was observed at 100 uM on A549 cells all around the surface
